Measured values as given in ChEMBL document CHEMBL2062374, “Chemoenzymatic synthesis and evaluation of 3-azabicyclo[3.2.0]heptane derivatives as dopaminergic ligands” (Eur J Med Chem, 2012).

Tests used:
Assay type in all cases: cell-based
D(1A) dopamine receptor = D(1A) dopamine receptor (Homo sapiens, UniProt P21728); assay: Displacement of [3H]SCH23390 from human D1 receptor expressed in HEK293 cells
D(2) dopamine receptor = D(2) dopamine receptor (Homo sapiens, UniProt P14416); assay: Displacement of [3H]raclopride from human D2L receptor expressed in HEK293 cells
D(3) dopamine receptor = D(3) dopamine receptor (Homo sapiens, UniProt P35462); assay: Displacement of [3H]raclopride from human D3 receptor expressed in HEK293 cells
D(3) dopamine receptor, sequence (P35462 whole entry): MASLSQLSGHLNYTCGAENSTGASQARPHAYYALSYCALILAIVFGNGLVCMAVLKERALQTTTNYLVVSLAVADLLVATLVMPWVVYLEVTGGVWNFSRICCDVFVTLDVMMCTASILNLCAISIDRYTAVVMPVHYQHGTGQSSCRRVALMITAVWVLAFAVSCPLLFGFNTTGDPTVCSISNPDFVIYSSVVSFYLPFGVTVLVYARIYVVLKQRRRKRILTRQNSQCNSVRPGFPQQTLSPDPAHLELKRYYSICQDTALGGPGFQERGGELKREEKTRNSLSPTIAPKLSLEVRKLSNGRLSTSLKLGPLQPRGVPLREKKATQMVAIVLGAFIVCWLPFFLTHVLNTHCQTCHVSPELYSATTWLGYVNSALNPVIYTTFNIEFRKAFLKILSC

D(1A) dopamine receptor, sequence (P21728 whole entry): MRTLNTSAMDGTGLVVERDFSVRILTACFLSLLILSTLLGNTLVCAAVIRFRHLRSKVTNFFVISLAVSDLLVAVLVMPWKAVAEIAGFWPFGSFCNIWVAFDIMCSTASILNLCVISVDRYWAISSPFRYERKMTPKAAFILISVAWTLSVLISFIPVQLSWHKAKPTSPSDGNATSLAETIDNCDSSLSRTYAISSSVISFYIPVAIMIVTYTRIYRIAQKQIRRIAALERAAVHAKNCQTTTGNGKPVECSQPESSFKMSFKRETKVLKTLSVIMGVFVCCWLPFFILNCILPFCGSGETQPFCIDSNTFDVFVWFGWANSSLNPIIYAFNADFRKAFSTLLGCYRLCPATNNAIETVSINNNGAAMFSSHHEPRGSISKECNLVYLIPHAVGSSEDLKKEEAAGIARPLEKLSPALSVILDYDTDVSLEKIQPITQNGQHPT
D(2) dopamine receptor, sequence (P14416 whole entry): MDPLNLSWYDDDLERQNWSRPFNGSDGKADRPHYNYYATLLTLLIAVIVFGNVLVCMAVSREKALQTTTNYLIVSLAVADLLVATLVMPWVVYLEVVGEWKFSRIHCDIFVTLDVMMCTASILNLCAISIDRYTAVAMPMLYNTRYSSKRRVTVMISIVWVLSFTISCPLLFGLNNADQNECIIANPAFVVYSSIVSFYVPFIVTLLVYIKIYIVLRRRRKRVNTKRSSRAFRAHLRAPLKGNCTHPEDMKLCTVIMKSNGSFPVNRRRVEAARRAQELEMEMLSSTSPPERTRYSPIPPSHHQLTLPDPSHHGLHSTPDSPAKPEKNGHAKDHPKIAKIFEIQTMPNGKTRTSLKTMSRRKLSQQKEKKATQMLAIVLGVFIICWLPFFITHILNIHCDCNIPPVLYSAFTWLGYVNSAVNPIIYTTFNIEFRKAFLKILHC

SMILES | Ki (D(1A) dopamine receptor) [µM] | Ki (D(2) dopamine receptor) [µM] | Ki (D(3) dopamine receptor) [µM]
OC[C@H]1[C@H]2CN(Cc3ccccc3)[C@H](c3ccccc3)[C@H]2[C@@H]1N1CCCC1 | 40.8 | 7.4 | 11
OC[C@@H]1[C@@H]2CN(Cc3ccccc3)[C@@H](c3ccccc3)[C@@H]2[C@H]1N1CCCCC1 | 49 | 2 | 1.5
CCN(CC)[C@H]1[C@H](CO)[C@@H]2CN(Cc3ccccc3)[C@@H](C)[C@@H]21 | > 100 | 3.9 | 1.77
C[C@@H]1[C@@H]2[C@H](CN1Cc1ccccc1)[C@H](CO)[C@H]2N1CCCC1 | > 100 | 66 | 36
CCN(CC)[C@@H]1[C@@H](CO)[C@H]2CN(Cc3ccccc3)[C@H](C)[C@H]21 | > 100 | 38 | 21
CCN(CC)[C@H]1[C@H](CO)[C@@H]2CN(Cc3ccccc3)[C@@H](c3ccccc3)[C@@H]21 | 22 | 1.7 | 1.3
C[C@H]1[C@H]2[C@@H](CN1Cc1ccccc1)[C@@H](CO)[C@@H]2N1CCCC1 | > 100 | 16 | 11
CCN(CC)[C@@H]1[C@@H](CO)[C@H]2CN(Cc3ccccc3)[C@H](c3ccccc3)[C@H]21 | 42 | 12 | 13.2
CCN(CC)[C@H]1[C@H](CO)[C@@H]2CN(Cc3ccccc3)[C@@H](c3ccc(Br)cc3)[C@@H]21 | 8 | 2 | 2.14
CCN(CC)[C@H]1[C@H](CO)[C@@H]2CN(Cc3ccccc3)[C@@H](c3ccccn3)[C@@H]21 | > 100 | 12 | 8.8
OC[C@H]1[C@H]2CN(Cc3ccccc3)[C@H](c3ccccc3)[C@H]2[C@@H]1N1CCCCC1 | 44 | 7 | 5.3
CCN(CC)[C@@H]1[C@@H](CO)[C@H]2CN(Cc3ccccc3)[C@H](c3ccc(Br)cc3)[C@H]21 | 7 | 5 | 7.93
CCN(CC)[C@@H]1[C@@H](CO)[C@H]2CN(Cc3ccccc3)[C@H](c3ccccn3)[C@H]21 | > 100 | 42 | 36
OC[C@@H]1[C@@H]2CN(Cc3ccccc3)[C@@H](c3ccccc3)[C@@H]2[C@H]1N1CCCC1 | 22 | 0.25 | 0.28
